The text below walks through data of ChEMBL document CHEMBL3769315 (J Med Chem, 2016).

One series concerns Hepatitis C virus. As to the kind of experiment: microbe, parasite or virus in culture. The format is functional, organism-based, Hepacivirus hominis. The conditions noted are these: JFH-1, Huh-7.5.1, 48 h.
The nature of series [1]: Cytotoxicity against human Huh7.5.1 cells assessed as ATP level by luminescence analysis. The conditions noted are these: huh-7.
A short description of series [2]: Selectivity index, ratio of CC50 for human Huh7.5.1 cells infected with HCV JFH-1 virus to EC50 for HCV JFH-1 virus.

What is called EC50 is the concentration that produces a half-maximal response. For orientation: CC50 means the concentration at which the toxic effect on the cells reaches its halfway point.

Compound `Clc1ccc([C@H](c2ccccc2)N2CCN(C3CCCC3)CC2)cc1` had an EC50 with Hepatitis C virus of 0.019 µM. Moreover, the CC50 in series [1] was found to be 30.4 µM. Moreover, the selectivity ratio in series [2] came to 1600.
Turning to `CN1CCCN(C(c2ccccc2)c2ccc(Cl)cc2)CC1` (racemic) [HOMOCHLORCYCLIZINE], a half-maximal effect in the series with Hepatitis C virus (EC50) was put at 0.057 µM. For the same compound, the CC50 in series [1] is 12.8 µM. For the same compound, the selectivity ratio in series [2] worked out at 225.
The matching figures for `CC(C)(C)OC(=O)NCCOCCOCCOCCOCCN1CCN(C(c2ccccc2)c2ccc(Cl)cc2)CC1` (racemic): 0.199 µM, 19 µM and 95.
`CCCCN1CCN([C@@H](c2ccccc2)c2ccc(Cl)cc2)CC1` showed an EC50 in the series with Hepatitis C virus of 0.042 µM. In addition, the CC50 in series [1] came out at 31.1 µM. Further, the selectivity ratio in series [2] was found to be 740.
The corresponding values for `CN1CCC(N(c2ccccc2)c2ccccc2)CC1` are 2.72 µM, 56.8 µM and 21.
The matching figures for `CC(C)CN1CCN([C@H](c2ccccc2)c2ccc(Cl)cc2)CC1`: 0.232 µM, 58.2 µM and 251.
Consider `[2H]C([2H])([2H])N1CCN([C@H](c2ccccc2)c2ccc(Cl)cc2)CC1`, for which the EC50 with Hepatitis C virus worked out at 0.04 µM. For the same compound, the CC50 in series [1] is 46.7 µM.
Turning to `CC(C)N1CCN([C@@H](c2ccccc2)c2ccc(Cl)cc2)CC1`, the EC50 with Hepatitis C virus stood at 0.013 µM. Further, in series [1], the CC50 stood at 32.4 µM. Besides, the selectivity ratio in series [2] was 2490.
In the series on Hepatitis C virus, `CC(=O)N1CCN([C@@H](c2ccccc2)c2ccc(Cl)cc2)CC1` returned an EC50 of 22 µM. Further, the CC50 in series [1] turned out to be 91.3 µM. For the same compound, in series [2], the selectivity ratio worked out at 4.
The corresponding values for `CC(=O)NCCOCCOCCOCCOCCN1CCN(C(c2ccccc2)c2ccc(Cl)cc2)CC1` (racemic) are 0.17 µM, above 100 µM and above 588.
The corresponding values for `c1ccc(C(c2ccccc2)c2ccncc2)cc1` are above 31.6 µM, 65.1 µM and below 2.
In the case of `FC(F)(F)CN1CCN([C@H](c2ccccc2)c2ccc(Cl)cc2)CC1`, the EC50 in the series with Hepatitis C virus is above 31.6 µM.
In the series with Hepatitis C virus, `CCCN1CCN([C@H](c2ccccc2)c2ccc(Cl)cc2)CC1` yielded an EC50 of 0.024 µM. Further, the CC50 in series [1] stood at 48.5 µM. Besides, in series [2], the selectivity ratio worked out at 2020.
Compound `CN1CCN([C@H](c2ccccc2)c2ccc(Cl)cc2)CC1` showed an EC50 in the series with Hepatitis C virus of 0.02 µM. Also, in series [1], the half-maximal cytotoxic concentration (CC50) came out at 37.5 µM.
`Clc1ccc([C@@H](c2ccccc2)N2CCNCC2)cc1`: the EC50 in the series on Hepatitis C virus is 0.032 µM. The CC50 in series [1] came out at 12.5 µM. The selectivity ratio in series [2] amounted to 391.
Take `[2H]C([2H])([2H])CN1CCN([C@@H](c2ccccc2)c2ccc(Cl)cc2)CC1`: in series [1], the CC50 came to 71.3 µM.
`FC(F)(F)CN1CCN([C@@H](c2ccccc2)c2ccc(Cl)cc2)CC1` displayed an EC50 with Hepatitis C virus above 31.6 µM. Also, the CC50 in series [1] is above 100 µM.
For `NC(=O)COCCN1CCN(C(c2ccccc2)c2ccc(Cl)cc2)CC1` (racemic), in the series with Hepatitis C virus, the EC50 is 0.103 µM. The CC50 in series [1] is above 100 µM. The selectivity ratio in series [2] was above 910.
With `[2H]C([2H])([2H])N1CCN([C@@H](c2ccccc2)c2ccc(Cl)cc2)CC1`, the EC50 with Hepatitis C virus worked out at 0.063 µM. Besides, the CC50 in series [1] amounted to 77.9 µM.
As for `CCCN1CCN([C@@H](c2ccccc2)c2ccc(Cl)cc2)CC1`, the EC50 with Hepatitis C virus came out at 0.032 µM. In addition, the CC50 in series [1] stood at 39.7 µM. The selectivity ratio in series [2] stood at 1240.
Turning to `O=C(O)COCCN1CCN(C(c2ccccc2)c2ccc(Cl)cc2)CC1` (racemic) [CETIRIZINE], the EC50 in the series with Hepatitis C virus was above 31.6 µM.
Turning to `Clc1ccc(C(c2ccccc2)N2CCNCC2)cc1` (racemic) [NORCHLORCYCLIZINE], in the series on Hepatitis C virus, the EC50 is 0.035 µM. Besides, the CC50 in series [1] was 10.4 µM. Further, the selectivity ratio in series [2] was determined as 297.
The corresponding values for `CN1CCC(N(c2ccccc2)c2ccc(OC(C)(C)C)cc2)CC1` are 0.354 µM, 78.7 µM and 222.
Take `CCCCN1CCN([C@H](c2ccccc2)c2ccc(Cl)cc2)CC1`: in the series with Hepatitis C virus, the response was half-maximal at 0.195 µM (EC50). Besides, the CC50 in series [1] came out at 40.8 µM. Besides, the selectivity ratio in series [2] is 209.
The corresponding values for `CCN1CCN(C2c3ccccc3-c3ccc(Br)cc32)CC1` (centres undefined) are 1.68 µM, 53.1 µM and 32.
The corresponding values for `Clc1ccc([C@H](c2ccccc2)N2CCN(C3CCCCC3)CC2)cc1` are 0.177 µM, 12.3 µM and 69.
For the compound `COc1ccc(CN2CCN([C@@H](c3ccccc3)c3ccc(Cl)cc3)CC2)c(OC)c1`, the response with Hepatitis C virus was half-maximal at 0.456 µM (EC50). The CC50 in series [1] turned out to be 38.4 µM. In series [2], the selectivity ratio turned out to be 84.
The matching figures for `c1ccc(C(c2ccccc2)C2CCNCC2)cc1`: 0.072 µM, 32.5 µM and 451.
The matching figures for `Clc1ccc(C(c2ccc(Cl)cc2)N2CCCCC2)cc1`: 17.4 µM, 69 µM and 4.
The corresponding values for `CC(C)CN1CCN([C@@H](c2ccccc2)c2ccc(Cl)cc2)CC1` are 0.102 µM, 51.7 µM and 507.
With `OCCOCCN1CCN(C(c2ccccc2)c2ccc(Cl)cc2)CC1` (racemic) [HYDROXYZINE], in the series on Hepatitis C virus, a half-maximal effect (EC50) was put at 0.032 µM. In addition, the CC50 in series [1] is 42.6 µM. The selectivity ratio in series [2] was 1330.
The matching figures for `O=C1c2ccccc2C(=O)N1CCOCCN1CCN(C(c2ccccc2)c2ccc(Cl)cc2)CC1` (racemic): 1.54 µM, above 100 µM and above 65.
In the series with Hepatitis C virus, `Clc1ccc(C(c2ccc(Cl)cc2)N2CCOCC2)cc1` had an EC50 of 29.7 µM. In series [1], the CC50 stood at 62.1 µM. Also, the selectivity ratio in series [2] is 2.
